Structures are written as SMILES. Like-named read-outs stand apart in the source and are kept apart here.

Targets include BRAF (Homo sapiens, UniProt P15056); CK2a1 (Homo sapiens, UniProt P68400); EpHA4 (Homo sapiens, UniProt P54764); NDR2 (Homo sapiens, UniProt Q9Y2H1).
What all share (assay): biochemical
A further experiment has as its target T1, DRAK1 (Homo sapiens, UniProt Q9UEE5).
T1 sequence (Q9UEE5 1-414): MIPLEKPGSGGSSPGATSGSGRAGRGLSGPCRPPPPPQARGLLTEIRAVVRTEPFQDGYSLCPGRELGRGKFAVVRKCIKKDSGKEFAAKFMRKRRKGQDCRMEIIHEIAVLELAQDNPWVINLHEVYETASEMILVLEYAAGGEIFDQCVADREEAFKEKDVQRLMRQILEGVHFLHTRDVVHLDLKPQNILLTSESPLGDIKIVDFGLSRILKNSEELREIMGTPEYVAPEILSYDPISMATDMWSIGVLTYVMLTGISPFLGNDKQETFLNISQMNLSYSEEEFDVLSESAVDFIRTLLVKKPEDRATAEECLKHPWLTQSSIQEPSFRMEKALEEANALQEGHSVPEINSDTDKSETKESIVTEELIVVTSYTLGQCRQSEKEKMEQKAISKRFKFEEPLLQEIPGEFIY

The target of another experiment is T2, Erk7 (Homo sapiens, UniProt Q8TD08).
T2 sequence (Q8TD08 1-544): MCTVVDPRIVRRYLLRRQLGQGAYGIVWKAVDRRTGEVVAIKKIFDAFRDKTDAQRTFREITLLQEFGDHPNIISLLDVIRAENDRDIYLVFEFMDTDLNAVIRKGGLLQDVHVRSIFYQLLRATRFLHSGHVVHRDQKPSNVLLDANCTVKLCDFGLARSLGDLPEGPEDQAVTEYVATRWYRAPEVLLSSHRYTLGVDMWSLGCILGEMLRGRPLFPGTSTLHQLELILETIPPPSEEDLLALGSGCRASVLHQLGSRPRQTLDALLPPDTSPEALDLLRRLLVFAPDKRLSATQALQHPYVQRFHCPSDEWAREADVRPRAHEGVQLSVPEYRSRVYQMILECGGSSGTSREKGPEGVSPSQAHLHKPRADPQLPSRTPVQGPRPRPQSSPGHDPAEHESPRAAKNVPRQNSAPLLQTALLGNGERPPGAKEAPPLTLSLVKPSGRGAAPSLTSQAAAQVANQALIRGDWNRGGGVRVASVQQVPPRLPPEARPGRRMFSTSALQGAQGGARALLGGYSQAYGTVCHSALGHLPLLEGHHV

For another experiment, the target named is T3, MAP2K6 (Homo sapiens, UniProt P52564).
T3 sequence (P52564 1-334): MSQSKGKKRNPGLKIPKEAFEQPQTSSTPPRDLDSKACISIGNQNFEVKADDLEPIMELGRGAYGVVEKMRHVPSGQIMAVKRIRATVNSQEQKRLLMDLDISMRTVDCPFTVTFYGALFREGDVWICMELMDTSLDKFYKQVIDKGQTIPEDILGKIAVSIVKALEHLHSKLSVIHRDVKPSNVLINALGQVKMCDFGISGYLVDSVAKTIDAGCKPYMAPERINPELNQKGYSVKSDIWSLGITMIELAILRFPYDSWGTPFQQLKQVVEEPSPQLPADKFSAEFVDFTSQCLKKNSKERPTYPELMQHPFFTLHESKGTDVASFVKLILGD

Sequence of NDR2 (Q9Y2H1 whole entry): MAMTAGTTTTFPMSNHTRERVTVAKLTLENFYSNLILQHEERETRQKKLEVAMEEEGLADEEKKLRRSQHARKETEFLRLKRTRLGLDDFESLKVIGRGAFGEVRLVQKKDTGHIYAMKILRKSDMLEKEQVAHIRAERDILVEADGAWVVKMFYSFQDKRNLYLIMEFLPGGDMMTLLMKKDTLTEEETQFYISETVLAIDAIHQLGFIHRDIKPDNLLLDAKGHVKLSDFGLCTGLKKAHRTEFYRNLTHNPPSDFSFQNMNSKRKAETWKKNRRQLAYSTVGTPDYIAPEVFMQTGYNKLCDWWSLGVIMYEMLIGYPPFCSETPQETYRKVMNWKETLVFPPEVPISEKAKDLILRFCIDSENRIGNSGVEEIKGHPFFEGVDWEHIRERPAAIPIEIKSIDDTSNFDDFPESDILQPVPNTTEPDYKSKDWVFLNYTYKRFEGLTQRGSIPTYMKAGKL
Sequence of CK2a1 (P68400 whole entry): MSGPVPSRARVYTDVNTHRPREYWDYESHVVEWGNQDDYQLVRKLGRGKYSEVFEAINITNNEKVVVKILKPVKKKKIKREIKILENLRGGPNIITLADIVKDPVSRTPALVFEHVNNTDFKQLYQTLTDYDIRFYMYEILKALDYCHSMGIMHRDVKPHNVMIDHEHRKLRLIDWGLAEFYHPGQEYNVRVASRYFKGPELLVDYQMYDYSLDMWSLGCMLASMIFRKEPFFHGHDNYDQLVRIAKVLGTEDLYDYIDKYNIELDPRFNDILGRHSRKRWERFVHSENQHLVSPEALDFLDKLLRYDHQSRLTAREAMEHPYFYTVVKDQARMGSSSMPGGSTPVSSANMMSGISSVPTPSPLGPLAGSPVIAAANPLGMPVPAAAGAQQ
Sequence of BRAF (P15056 whole entry): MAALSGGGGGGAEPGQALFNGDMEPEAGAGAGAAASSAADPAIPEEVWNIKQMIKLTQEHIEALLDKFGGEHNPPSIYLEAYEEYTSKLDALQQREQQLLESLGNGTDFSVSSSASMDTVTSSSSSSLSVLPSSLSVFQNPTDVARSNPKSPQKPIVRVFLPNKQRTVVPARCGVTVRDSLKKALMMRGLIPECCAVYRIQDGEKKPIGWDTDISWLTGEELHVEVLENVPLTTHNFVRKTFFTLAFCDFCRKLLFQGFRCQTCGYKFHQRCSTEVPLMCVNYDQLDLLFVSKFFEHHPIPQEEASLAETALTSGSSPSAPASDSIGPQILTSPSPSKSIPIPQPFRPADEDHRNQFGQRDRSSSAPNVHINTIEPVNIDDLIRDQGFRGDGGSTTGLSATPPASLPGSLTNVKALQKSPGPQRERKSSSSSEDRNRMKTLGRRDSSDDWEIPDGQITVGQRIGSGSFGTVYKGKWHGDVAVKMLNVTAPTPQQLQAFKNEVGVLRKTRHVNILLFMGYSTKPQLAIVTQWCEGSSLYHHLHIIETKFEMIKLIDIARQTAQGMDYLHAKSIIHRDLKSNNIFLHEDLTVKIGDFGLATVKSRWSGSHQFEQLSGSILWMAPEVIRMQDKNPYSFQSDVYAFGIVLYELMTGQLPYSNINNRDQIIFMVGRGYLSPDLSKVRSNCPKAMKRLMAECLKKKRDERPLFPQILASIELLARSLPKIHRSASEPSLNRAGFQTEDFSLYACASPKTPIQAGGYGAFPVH
Sequence of EpHA4 (P54764 whole entry): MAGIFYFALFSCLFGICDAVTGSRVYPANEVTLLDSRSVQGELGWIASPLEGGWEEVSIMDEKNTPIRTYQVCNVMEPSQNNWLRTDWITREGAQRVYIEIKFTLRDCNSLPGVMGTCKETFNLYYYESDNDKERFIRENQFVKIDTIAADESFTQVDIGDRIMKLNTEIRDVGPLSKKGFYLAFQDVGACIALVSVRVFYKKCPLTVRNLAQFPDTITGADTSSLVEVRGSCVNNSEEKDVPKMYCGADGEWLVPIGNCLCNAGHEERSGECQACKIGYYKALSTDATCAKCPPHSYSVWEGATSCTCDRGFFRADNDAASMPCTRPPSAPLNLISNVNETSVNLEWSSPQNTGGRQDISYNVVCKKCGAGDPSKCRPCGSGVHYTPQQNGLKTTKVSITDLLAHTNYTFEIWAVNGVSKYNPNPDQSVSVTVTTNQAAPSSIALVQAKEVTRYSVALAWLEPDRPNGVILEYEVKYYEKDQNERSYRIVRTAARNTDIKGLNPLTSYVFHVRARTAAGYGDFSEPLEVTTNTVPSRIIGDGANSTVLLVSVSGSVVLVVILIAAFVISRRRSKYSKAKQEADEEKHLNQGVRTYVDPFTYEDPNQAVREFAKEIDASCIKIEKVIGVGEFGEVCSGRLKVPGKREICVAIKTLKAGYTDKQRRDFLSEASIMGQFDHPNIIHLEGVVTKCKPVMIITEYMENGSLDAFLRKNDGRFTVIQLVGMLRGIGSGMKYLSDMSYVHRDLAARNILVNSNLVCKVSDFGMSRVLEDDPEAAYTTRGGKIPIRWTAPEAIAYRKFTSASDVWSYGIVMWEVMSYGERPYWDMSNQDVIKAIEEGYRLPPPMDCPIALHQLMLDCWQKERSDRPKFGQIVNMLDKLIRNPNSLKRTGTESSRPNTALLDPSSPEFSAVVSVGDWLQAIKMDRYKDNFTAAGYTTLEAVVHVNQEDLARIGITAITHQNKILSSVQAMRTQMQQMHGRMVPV

In the case of `CNc1ncc2cc(-c3cc(Cl)ccc3Cl)c(=O)n(CCCCN)c2n1` [compound 8, 8-(4-Aminobutyl)-6-(2,5-dichlorophenyl)-2-(methylamino)pyrido[2,3-d]pyrimidin-7(8H)-one], the ΔTm at 10 µM on BRAF (read-out: dTm 8) was determined as 10.8 °C; at CK2a1 (read-out: dTm 8), 1.1 °C; at DRAK1 (read-out: dTm 8), 1.1 °C; at EpHA4 (read-out: dTm 8), 4.7 °C; on Erk7 (read-out: dTm 8), 0.3 °C; at MAP2K6 (read-out: dTm 8) it was 1.3 °C. The ΔTm at 10 µM at NDR2 (read-out: dTm 8) was 0.4 °C.

`CNc1ncc2cc(-c3cc(Cl)ccc3Br)c(=O)n(CCCCN)c2n1` [compound 10, 8-(4-Aminobutyl)-6-(2-bromo-5-chlorophenyl)-2-(methylamino)pyrido[2,3-d]pyrimidin-7(8H)-one]: the ΔTm at 10 µM on BRAF (read-out: dTm 10) was 11.4 °C; on CK2a1 (read-out: dTm 10) it was 1.3 °C; at DRAK1 (read-out: dTm 10) it was -0.8 °C; on EpHA4 (read-out: dTm 10) it was 5.1 °C; at Erk7 (read-out: dTm 10) it was 0.3 °C; at MAP2K6 (read-out: dTm 10) it was 1.5 °C. Besides, the ΔTm at 10 µM at NDR2 (read-out: dTm 10) stood at 0.4 °C.

For `CNc1ncc2cc(-c3cc(Br)ccc3Br)c(=O)n(CCCCN)c2n1` [compound 11, 8-(4-Aminobutyl)-6-(2,5-dibromophenyl)-2-(methylamino)pyrido[2,3-d]pyrimidin-7(8H)-one], the ΔTm at 10 µM on BRAF (read-out: dTm 11) is 11.6 °C; at CK2a1 (read-out: dTm 11), 1.1 °C; on DRAK1 (read-out: dTm 11), -0.8 °C; at EpHA4 (read-out: dTm 11), 4.3 °C; on Erk7 (read-out: dTm 11), 0.3 °C; on MAP2K6 (read-out: dTm 11), 1.6 °C. At NDR2 (read-out: dTm 11), the ΔTm at 10 µM amounted to 0.5 °C.

For the molecule `CNc1ncc2cc(-c3cc(C(F)(F)F)ccc3Cl)c(=O)n(CCCCN)c2n1` [compound 9, 8-(4-Aminobutyl)-6-(2-chloro-5-(trifluoromethyl)phenyl)-2-(methylamino)pyrido[2,3-d]pyrimidin-7(8H)-one], the ΔTm at 10 µM at BRAF (read-out: dTm 9) is 10.4 °C; on CK2a1 (read-out: dTm 9), 0.1 °C; on DRAK1 (read-out: dTm 9), -1.1 °C; on EpHA4 (read-out: dTm 9), 2.9 °C; on Erk7 (read-out: dTm 9), 0.1 °C; on MAP2K6 (read-out: dTm 9) it was 0.8 °C. Also, the ΔTm at 10 µM on NDR2 (read-out: dTm 9) came to 0.1 °C.

As to `CNc1ncc2cc(-c3cc(F)c(-c4cccc(C)n4)cc3F)c(=O)n(CCCCN)c2n1` [compound 12, 8-(4-Aminobutyl)-6-(2,5-difluoro-4-(6-methylpyridin-2-yl)phenyl)-2-(methylamino)pyrido[2,3-d]pyrimidin-7(8H)-one], the ΔTm at 10 µM on BRAF (read-out: dTm 12) is 2.3 °C; at CK2a1 (read-out: dTm 12) it was -0.2 °C; on DRAK1 (read-out: dTm 12), 0 °C; on EpHA4 (read-out: dTm 12), 1.6 °C; on Erk7 (read-out: dTm 12), -1.3 °C; at MAP2K6 (read-out: dTm 12), 3.8 °C. Further, the ΔTm at 10 µM at NDR2 (read-out: dTm 12) was found to be 5.2 °C.

(Values after doi:10.1101/2023.03.24.534094v2 (biorxiv, 2023).)
